# From patent publication US11858970B1, “Chili pepper seed isolated oligopeptide FTLE and application thereof in preventing or treating cancer” (CHINA AGRICULTURAL UNIVERSITY, priority 2022, dated 2024)
# Test system: HepG2 cells
# Assay: HepG2 cell proliferation measured by MTT method
# Type: cell-based
# Conditions: peptide at 0.1, 0.3 and 0.6 mM, 24 hours, compared with other synthetic peptides
# Protocol: Chemical systhesis was conducted in accordance with the peptide sequences obtained by mass spectrometry identification analysis of Example 1 to obtain synthetic peptides. The effect of each peptide on HepG2 cell proliferation was studied, and the specific steps were as follows:
# 1) HepG2 cell culture: hepG2 cells were obtained from the ATCC cell bank and were cultured in a DMEM medium containing 10% FBS at 37° C. in a 5% CO2 cell incubator. Cells were cultured in a 25 cm ^2 flask, passaged when cells were grown to a density of 70% to 90%, and seeded in a 96-well plate.
# 2) Peptide fragment treatment: after 24 hours of cell culture in the 96-well plate, the original DMEM medium was aspirated from the wells. DMEM containing peptide fragments at concentrations of 0.1, 0.3, and 0.6 mM were added to each well to continue culturing for 24 hours.
# 3) Cell proliferation rate measured by MTT method: MTT at a concentration of 5 mg/mL was added to a 96-well plate in 20 μL per well. After incubation for 4 hours, the liquid was aspirated from each well. 150 μL DMSO was added to each well. The absorbance was measured after reacting for 20 min.
substance,measurement,value
"Phe-Thr-Leu-Glu (FTLE) [oligopeptide identified in chili pepper seed zymolyte, chemically synthesized for testing]",HepG2 cell inhibition rate,better HepG2 cell inhibition rate than other oligopeptides
